According to patent US12263144B2, “Methods of treating IgA nephropathy with thiol-containing molecules” (Accubit LLC—Biotechnology, priority 2020, dated 2025):

Legend:
Rat rIgA (poly-rIgA) = experiment: SEC determination of poly- and mono-rIgA content of rat rIgA after treatment; format: biochemical; conditions: 1 h 37° C., PBS, SEC AUC
Method: The overall complex size of IgA aggregates was determined either by size-exclusion chromatography (SEC: Superdex 200 Increase 10/300 by GL Cytiva), or by SDS-PAGE. For evaluating the involvement of intermolecular disulfide connectivity in IgA complexes, IgA samples were treated with either reducing agents, such as DTT, TCEP or reduced glutathione (Sigma), or interventional drugs, such as cysteamine (Sigma), WR-1065 (Sigma) and N-Acetyl-L-cysteine (VWR Chemicals) in phosphate-buffered saline (PBS) pH7.4. Before running on SEC, samples were treated with the drugs at indicated concentrations at 37° C. for one hour.
In the meantime, the SEC column was also equilibrated with PBS supplemented with the reducing agent at the same concentration. For running SEC, 100 μL of the recombinant IgA (concentration varies between 1 mg/mL and 8 mg/mL) or purified native human IgA1 (˜1 mg/mL) was loaded to the column and UV absorption was recorded following elution. […] The ratios between poly-rIgA and mono-rIgA were calculated as between the corresponding areas under the curve (AUC), and the treatment effect of the thiol agents was judged by the reduction of the poly-rIgA level with a compensatory increase of the mono-rIgA content.
To further investigate specific cysteine residue(s) involved in IgA complexes, expression vectors were constructed to produce recombinant IgA (rIgA) Fc segments of rat and human sequences (FIG. 2, part A) as discussed above. Rat IgA analogs were expressed in BL21 DE3 strain of E. coil and recombinant protein were purified from the bacterial lysate using Histrap HP columns (GE Healthcare) by running fast protein liquid chromatography (FPLC). Human recombinant IgA mimetics were produced from human embryo kidney (HEK293) cells by transfection of the expressing plasmids. Recombinant IgA proteins expressed by the cells were secreted into the culture medium, and they were subsequently purified by Histrap HP columns by FPLC using standard procedures. […] Rat rIgA was produced from bacterial expression as discussed above.
Cysteamine (Cy), an aminothiol that can react with cysteine, is both a natural metabolite produced in mammalian cells and a clinical drug used for treatment of cystinosis. In cystinosis, cysteamine reduces the disulfide bond in cystine, which is the oxidated dimer of amino acid cysteine (FIG. 4, part A). In the context of cysteine residues in proteins, endogenous cysteamine as well as the therapeutic drug forms mixed disulfides with susceptible cysteine sulfhydryl groups in a process called cysteamination (FIG. 4, part B). It was sought to determine whether cysteamine could reduce Cys471-disulfides to disaggregate poly-IgA. Rat rIgA (SEQ ID NO.4) was treated with various concentrations of cysteamine for one hour at 37° C. in phosphate buffered saline at neutral pH and the protein complexes were analyzed by SEC. The SEC column (model: Superdex 200 Increase 10/300 GL by Cytiva) was preequilibrated with the same buffer supplemented with the same concentration of cysteamine.

[1] = tested on: glomerular rIgA deposition; experiment: Passive rat model of IgA deposition (rat rIgA injection), glomerular immunofluorescence; format: in vivo, Wistar rats; conditions: rats, 250 mg/kg s.c. daily 2 h before rIgA i.v., 5 days, n=3; control 1384±290
Method: To establish the passive rat model, 5 mg/kg.BW recombinant rat rIgA, which contained a fraction of poly-rIgA, were i.v. injected daily to six 14-weeks old male Wistar rats (Charles River Labs, USA) for 5 consecutive days. Every day, three rats in each group had received a subcutaneous dose of either 250 mg/kg cysteamine, or buffer control, two hours before the rIgA injection. Twenty-four hours after the last injection of rIgA, kidneys were collected for immunofluorescence detection of deposits with goat-anti-rat IgA antibody (Cat: STAR111, Biorad laboratory). Similarly, a passive IgA nephrophathy mouse model was established by injecting 35 mg/kg purified human IgA1 in BALB/c mice (Charles River Labs). Two hours before IgA1 injection, six mice in each experimental group had each received a pretreatment dose of either 200 mg/kg cysteamine, or PBS, via subcutaneous injection. Two and a half hours after human IgA1 injection, kidneys were harvested, and specimens were stained with FITC-conjugated anti-human IgA antibody (Cat: 2050-02, SouthernBiotech). Plasma samples were collected at 0.5 h, 1 h and 2 h after IgA1 injection of all mice.
Frozen tissues were sectioned at 4 μm for IgA detection using goat anti-rat IgA (Cat: STAR111, Bio-Rad Laboratories) at 1:100, or anti-human IgA antibody (Cat: 2050-02, […]) at 1:80 dilution. […]

NCCS [cysteamine]
Mono-IgA (%) (Rat rIgA (poly-rIgA); cysteamine 0.1 mM): 81.85%
Poly-IgA (%) (Rat rIgA (poly-rIgA); cysteamine 0.1 mM): 18.15%
Mono-IgA (%) (Rat rIgA (poly-rIgA); cysteamine 1 mM): 89.57%
Poly-IgA (%) (Rat rIgA (poly-rIgA); cysteamine 1 mM): 10.43%
Mono-IgA (%) (Rat rIgA (poly-rIgA); cysteamine 5 mM): 93.59%
Poly-IgA (%) (Rat rIgA (poly-rIgA); cysteamine 5 mM): 6.414%
Mono-IgA (%) (Rat rIgA (poly-rIgA); cysteamine 10 mM): 93.24%
Poly-IgA (%) (Rat rIgA (poly-rIgA); cysteamine 10 mM): 6.759%
quantitation of rIgA deposit in glomeruli (Mean±SEM immunofluorescence intensity) [1]: 523±76
